Key:
NF-κB = test: kinetic analysis of NF-kB inhibition in vivo after LPS; parameters: species or system mice
Description: Kinetic analysis of NF-kB inhibition in vivo. […] The drug was injected 24 hours before intraperitoneal injection of bacterial LPS (about an LD50/24). The study used two groups of 12 animals, vehicle control or drug administered 24 hours before LPS challenge. Spleens were harvested from 3 animals from both groups just before LPS challenge and at 1.5, 2.0 and 2.5 hours after administration of LPS.
Maximum NF-κB activation after LPS administration occurred at 1.5 hours in the vehicle controls, which was 4-fold increased over the pre-LPS level of activated NF-κB. The values for the vehicle control and drug treated animals are relative optical density units from ELISA measurement of NF-κB in nuclei from spleen cells.

[1] = tested on: monocyte chemoattractant protein-1 (MCP-1); test: MCP-1 RNA in perigonadal fat tissue by quantitative RT/PCR; assay type: in vivo, db/db mice; conditions: 20 mg/kg; normalized to vehicle control
Description: In another study, total RNA from perigonadal fat tissue from lean db/+ or diabetic db/db mice treated with 20 mg/kg of 17α-ethynylandrost-5-ene-3β,7β,17β-triol was isolated and processed for quantitative RT/PCR using primers specific for monocyte chemoattractant protein-1 (MCP-1) using an icycler iQ multicolor real time-detection system (Bio-Rad). RNA expression levels were normalized with respect to the vehicle control. […] For this study, vehicle was also administered to a control group of age matched lean heterozygous db/+ mice (n=7).

estrogen receptor-α = estrogen receptor-α (Homo sapiens, UniProt P03372); test: interaction with sex hormone receptor; assay type: binding
[2] = tested on: osteoblasts and osteocytes; test: osteoblast and osteocyte apoptosis in vertebral bone of ovariectomized mice (TUNEL); assay type: in vivo, Swiss Webster mice
Excerpt: The degree of apoptosis of osteoblasts and osteocytes in murine vertebral bone as a function of estrogen deficiency was examined. Swiss Webster mice (four months old) were ovariectomized. Twenty-eight days later, the animals were sacrificed, vertebrae were isolated, fixed and embedded, and then undecalcified in methacrylate.

Chain of estrogen receptor-α (P03372 whole entry): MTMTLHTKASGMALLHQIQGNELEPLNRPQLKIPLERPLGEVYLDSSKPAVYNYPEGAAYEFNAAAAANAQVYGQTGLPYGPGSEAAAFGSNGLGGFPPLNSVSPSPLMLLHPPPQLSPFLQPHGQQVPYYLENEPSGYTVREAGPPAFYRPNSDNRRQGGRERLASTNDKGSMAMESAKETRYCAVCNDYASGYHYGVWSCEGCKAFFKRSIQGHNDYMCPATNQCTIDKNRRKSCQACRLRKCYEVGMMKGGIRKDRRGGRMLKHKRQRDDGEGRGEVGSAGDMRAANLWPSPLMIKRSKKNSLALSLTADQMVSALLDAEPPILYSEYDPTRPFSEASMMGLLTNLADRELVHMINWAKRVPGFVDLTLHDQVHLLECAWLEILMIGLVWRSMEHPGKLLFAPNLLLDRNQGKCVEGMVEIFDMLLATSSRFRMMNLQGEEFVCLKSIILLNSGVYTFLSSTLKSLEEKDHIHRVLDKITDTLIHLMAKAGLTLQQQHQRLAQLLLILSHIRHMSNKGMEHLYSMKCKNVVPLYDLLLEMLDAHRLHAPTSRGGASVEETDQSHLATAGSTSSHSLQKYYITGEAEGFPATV

SMILES: C#C[C@]1(O)CC[C@H]2[C@@H]3[C@@H](O)C=C4C[C@@H](O)CC[C@]4(C)[C@H]3CC[C@@]21C [17α-ethynylandrost-5-ene-3β,7β,17β-triol]
- activated NF-κB in spleen cell nuclei (ELISA) (NF-κB; 0 hours (before LPS), about 40 mg/kg i.p. 24 h before LPS): 22 relative optical density units
- activated NF-κB in spleen cell nuclei (ELISA) (NF-κB; 1.5 hours after LPS): 2 relative optical density units
- activated NF-κB in spleen cell nuclei (ELISA) (NF-κB; 2.0 hours after LPS): 7 relative optical density units
- activated NF-κB in spleen cell nuclei (ELISA) (NF-κB; 2.5 hours after LPS): 9 relative optical density units
- decrease of MCP-1 levels [1]: about 50%
- interaction with estrogen receptor-α (estrogen receptor-α): do not interact
- osteoblast and osteocyte apoptosis [2]: reduce apoptosis
